From patent publication US11713335B2, “Aminocoumarin compounds and methods of their use” (President and Fellows of Harvard College, priority 2018, dated 2023)
In brackets after ≈: the same amount, converted by molar mass.

Legend:
Format in all cases: cell-based
S. aureus RN4220 = assay: Minimal inhibitory concentration, S. aureus RN4220; settings: Staphylococcus aureus, RN4220, 16 h, 16 hour minimal inhibitory concentration at 37° C.; read-out: MIC (μM) S. aureus RN4220
How it was run: (§1)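 MIC, in µM, taken as the lowest compound concentration preventing growth by OD600 after 16 h static incubation at 37 °C. Compound was twofold serially diluted in bacteria grown overnight in LB, or TSA for S. aureus, and diluted 1:100 twice.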

S. aureus MW2 = assay: Minimal inhibitory concentration, S. aureus MW2; settings: Staphylococcus aureus, MRSA, 16 h, 16 hour minimal inhibitory concentration at 37° C.; read-out: MIC (μM) S. aureus MW2 (MRSA)
How it was run: as §1

E. cloacae 13047 = assay: Minimal inhibitory concentration, E. cloacae 13047; settings: Enterobacter cloacae, 13047; 16 hour minimal inhibitory concentration at 37° C.; read-out: MIC (μM) E. cloacae 13047
How it was run: as §1

A. baumannii 19606 = assay: Minimal inhibitory concentration, A. baumannii 19606; settings: Acinetobacter baumannii, 19606, 16 h, 16 hour minimal inhibitory concentration at 37° C.; read-out: MIC (μM) A. baumannii 19606
How it was run: as §1

K. pneumoniae 700721 = assay: Minimal inhibitory concentration, K. pneumoniae 700721; settings: Klebsiella pneumoniae, 700721; 16 hour minimal inhibitory concentration at 37° C.; read-out: MIC (μM) K. pneumoniae 700721
How it was run: as §1

E. coli MC4100 = assay: Minimal inhibitory concentration, E. coli MC4100; settings: Escherichia coli, MC4100, 16 h, 16 hour minimal inhibitory concentration at 37° C.; read-out: MIC (μM) E. coli MC4100 ara+
How it was run: as §1

E. coli 25922 = assay: Minimal inhibitory concentration, E. coli 25922; settings: Escherichia coli, 25922, 16 h, 16 hour minimal inhibitory concentration at 37° C.; read-out: MIC (μM) E. coli 25922
How it was run: as §1

Molecule CO[C@@H]1[C@@H](OC(N)=O)[C@@H](O)[C@H](Oc2ccc3c(O)c(NC(=O)c4cccc(Oc5cccc(C)c5)c4)c(=O)oc3c2C)OC1(C)C [Compound 247] has an MIC (S. aureus RN4220) of 10 µM (≈ 6.35 µg/mL), an MIC (S. aureus MW2) of 5 µM (≈ 3.17 µg/mL) and an MIC (E. cloacae 13047) of over 100 µM. The MIC (A. baumannii 19606) was over 50 µM, the MIC (K. pneumoniae 700721) was over 100 µM and the MIC (E. coli MC4100) was 18 µM (≈ 11.4 µg/mL). It also gave an MIC (E. coli 25922) of 39 µM (≈ 24.8 µg/mL).

Work on CO[C@@H]1[C@@H](OC(N)=O)[C@@H](O)[C@H](Oc2ccc3c(O)c(NC(=O)c4cccc(Oc5ccc(C(C)(C)C)cc5)c4)c(=O)oc3c2C)OC1(C)C [Compound 248] yielded an MIC (S. aureus RN4220) of 2.3 µM (≈ 1.56 µg/mL), an MIC (S. aureus MW2) of 2.3 µM (≈ 1.56 µg/mL) and an MIC (E. cloacae 13047) of over 100 µM. For the same molecule, the MIC (A. baumannii 19606) was over 50 µM, the MIC (K. pneumoniae 700721) was over 100 µM and the MIC (E. coli MC4100) was over 200 µM. The MIC (E. coli 25922) was 148 µM (≈ 100 µg/mL).

CO[C@@H]1[C@@H](OC(N)=O)[C@@H](O)[C@H](Oc2ccc3c(O)c(NC(=O)c4cccc(Oc5ccc(F)cc5)c4)c(=O)oc3c2C)OC1(C)C [Compound 249] showed an MIC (S. aureus RN4220) of 20 µM (≈ 12.8 µg/mL), an MIC (S. aureus MW2) of 20 µM (≈ 12.8 µg/mL) and an MIC (E. cloacae 13047) of over 100 µM. It also gave an MIC (A. baumannii 19606) of over 50 µM, an MIC (K. pneumoniae 700721) of 20 µM (≈ 12.8 µg/mL) and an MIC (E. coli MC4100) of 5 µM (≈ 3.19 µg/mL). For the same molecule, the MIC (E. coli 25922) was under 1.56 µM.

For CO[C@@H]1[C@@H](OC(N)=O)[C@@H](O)[C@H](Oc2ccc3c(O)c(NC(=O)c4ccc5c(c4)oc4ccccc45)c(=O)oc3c2C)OC1(C)C [Compound 250], the MIC (S. aureus RN4220) was 10 µM (≈ 6.19 µg/mL), the MIC (S. aureus MW2) was 10 µM (≈ 6.19 µg/mL) and the MIC (E. cloacae 13047) was over 100 µM. The MIC (A. baumannii 19606) was over 50 µM, the MIC (K. pneumoniae 700721) was over 100 µM and the MIC (E. coli MC4100) was over 100 µM. It also gave an MIC (E. coli 25922) of over 200 µM.

With CO[C@@H]1[C@@H](OC(N)=O)[C@@H](O)[C@H](Oc2ccc3c(O)c(NC(=O)c4cccc(Oc5ccc(C(F)(F)F)cc5)c4)c(=O)oc3c2C)OC1(C)C [Compound 251] the MIC (S. aureus RN4220) was 9 µM (≈ 6.2 µg/mL), the MIC (S. aureus MW2) was 9 µM (≈ 6.2 µg/mL) and the MIC (E. cloacae 13047) was over 100 µM. The MIC (A. baumannii 19606) was over 50 µM, the MIC (K. pneumoniae 700721) was over 100 µM and the MIC (E. coli MC4100) was 4.5 µM (≈ 3.1 µg/mL). The MIC (E. coli 25922) was 9 µM (≈ 6.2 µg/mL).

For CO[C@@H]1[C@@H](OC(N)=O)[C@@H](O)[C@H](Oc2ccc3c(O)c(NC(=O)c4ccc(I)c(Oc5ccccc5)c4)c(=O)oc3c2C)OC1(C)C [Compound 252], the MIC (S. aureus RN4220) was 2.3 µM (≈ 1.72 µg/mL), the MIC (S. aureus MW2) was 2 µM (≈ 1.49 µg/mL) and the MIC (E. cloacae 13047) was over 100 µM. It also gave an MIC (A. baumannii 19606) of over 50 µM, an MIC (K. pneumoniae 700721) of 38 µM (≈ 28.4 µg/mL) and an MIC (E. coli MC4100) of 17 µM (≈ 12.7 µg/mL). It also gave an MIC (E. coli 25922) of 33 µM (≈ 24.6 µg/mL).

CO[C@@H]1[C@@H](OC(N)=O)[C@@H](O)[C@H](Oc2ccc3c(O)c(NC(=O)c4ccc([N+](=O)[O-])c(Oc5ccccc5)c4)c(=O)oc3c2C)OC1(C)C [Compound 253] showed an MIC (S. aureus RN4220) of 38 µM (≈ 25.3 µg/mL), an MIC (S. aureus MW2) of 38 µM (≈ 25.3 µg/mL) and an MIC (E. cloacae 13047) of over 100 µM. The MIC (A. baumannii 19606) was over 50 µM, the MIC (K. pneumoniae 700721) was over 100 µM and the MIC (E. coli MC4100) was 75 µM (≈ 49.9 µg/mL). It also gave an MIC (E. coli 25922) of 75 µM (≈ 49.9 µg/mL).

CO[C@@H]1[C@@H](OC(N)=O)[C@@H](O)[C@H](Oc2ccc3c(O)c(NC(=O)c4ccc(F)c(Oc5ccccc5)c4)c(=O)oc3c2C)OC1(C)C [Compound 254] gave an MIC (S. aureus RN4220) of 10 µM (≈ 6.39 µg/mL), an MIC (S. aureus MW2) of 10 µM (≈ 6.39 µg/mL) and an MIC (E. cloacae 13047) of 79 µM (≈ 50.4 µg/mL). The MIC (A. baumannii 19606) was over 50 µM, the MIC (K. pneumoniae 700721) was 20 µM (≈ 12.8 µg/mL) and the MIC (E. coli MC4100) was 2.4 µM (≈ 1.53 µg/mL). The MIC (E. coli 25922) was 5 µM (≈ 3.19 µg/mL).

Work on CO[C@@H]1[C@@H](OC(N)=O)[C@@H](O)[C@H](Oc2ccc3c(O)c(NC(=O)c4ccc(C)c(Oc5ccccc5)c4)c(=O)oc3c2C)OC1(C)C [Compound 255] yielded an MIC (S. aureus RN4220) of 5 µM (≈ 3.17 µg/mL), an MIC (S. aureus MW2) of 5 µM (≈ 3.17 µg/mL) and an MIC (E. cloacae 13047) of 77 µM (≈ 48.9 µg/mL). It also gave an MIC (A. baumannii 19606) of over 50 µM, an MIC (K. pneumoniae 700721) of 10 µM (≈ 6.35 µg/mL) and an MIC (E. coli MC4100) of 2.4 µM (≈ 1.52 µg/mL). For the same molecule, the MIC (E. coli 25922) was 5 µM (≈ 3.17 µg/mL).

COc1ccc(C(=O)Nc2c(O)c3ccc(O[C@@H]4OC(C)(C)[C@H](OC)[C@@H](OC(N)=O)[C@H]4O)c(C)c3oc2=O)cc1Oc1ccccc1 [Compound 256] gave an MIC (S. aureus RN4220) of 19 µM (≈ 12.4 µg/mL), an MIC (S. aureus MW2) of 19 µM (≈ 12.4 µg/mL) and an MIC (E. cloacae 13047) of over 100 µM. The MIC (A. baumannii 19606) was over 50 µM, the MIC (K. pneumoniae 700721) was 19 µM (≈ 12.4 µg/mL) and the MIC (E. coli MC4100) was 10 µM (≈ 6.51 µg/mL). The MIC (E. coli 25922) was 10 µM (≈ 6.51 µg/mL).

Molecule C#Cc1ccc(C(=O)Nc2c(O)c3ccc(O[C@@H]4OC(C)(C)[C@H](OC)[C@@H](OC(N)=O)[C@H]4O)c(C)c3oc2=O)cc1Oc1ccccc1 [Compound 257] has an MIC (S. aureus RN4220) of 5 µM (≈ 3.22 µg/mL), an MIC (S. aureus MW2) of 5 µM (≈ 3.22 µg/mL) and an MIC (E. cloacae 13047) of over 100 µM. The MIC (A. baumannii 19606) was over 50 µM, the MIC (K. pneumoniae 700721) was 71 µM (≈ 45.8 µg/mL) and the MIC (E. coli MC4100) was 39 µM (≈ 25.1 µg/mL). For the same molecule, the MIC (E. coli 25922) was 19 µM (≈ 12.2 µg/mL).

CO[C@@H]1[C@@H](OC(N)=O)[C@@H](O)[C@H](Oc2ccc3c(O)c(NC(=O)c4ccc(Br)c(Oc5ccccc5)c4)c(=O)oc3c2C)OC1(C)C [Compound 258] showed an MIC (S. aureus RN4220) of 5 µM (≈ 3.5 µg/mL), an MIC (S. aureus MW2) of 4.5 µM (≈ 3.15 µg/mL) and an MIC (E. cloacae 13047) of over 100 µM. The MIC (A. baumannii 19606) was over 50 µM, the MIC (K. pneumoniae 700721) was 20 µM (≈ 14 µg/mL) and the MIC (E. coli MC4100) was 4.5 µM (≈ 3.15 µg/mL). For the same molecule, the MIC (E. coli 25922) was 18 µM (≈ 12.6 µg/mL).
